This is an account of results in patent publication US9265808B2, “Compositions for alleviating inflammation and oxidative stress in a mammal” (priority 2004, dated 2016).

Data set [1] can be described thus: Blood pressure of human subjects. The settings on record: Subject #2, ATENOLOL 25 mg/day alone.
Protocol: The approximate daily dosage of each of the components of the herb-containing composition was as follows: B. monnieri extract (200 mg), Milk Thistle extract 70-80% (300 mg), Ashwagandha powder (200 mg), Turmeric extract (95%) (100 mg), Gotu kola powder (200 mg), Aloe vera powder (200 mg), Green tea (98% Polyphenols 45% EGCG) (100 mg), and Ginko biloba leaf extract (200 mg).
The approximate daily dosage of each of the components of the herb-containing composition was as follows: B. monnieri extract (134 mg), Milk Thistle extract 70-80% (200 mg), Ashwagandha powder (134 mg), Turmeric extract (95%) (67 mg), Gotu kola powder (134 mg), Aloe vera powder (134 mg), Green tea (98% Polyphenols, 45% EGCG) (67 mg), and Ginko biloba leaf extract (134 mg).
The test system of data set [2] is HO-1. As to the kind of experiment: Protandim®-induced HO-1 protein in presence of signaling pathway inhibitors, SK-N-MC cells. Type of data set: cell-based, human. Conditions: for decrease of Protandim®-mediated increase in HO-1 expression in presence of inhibitor: 20 μM SB203580 or 1 μM rottlerin 30 min. Here is the method:
To identify the signaling pathway(s) involved in HO-1 promoter induction by Protandim®, different pharmacological inhibitors that specifically block each of the following pathways were used: 5-(2-benzothiazolyl)-3-ethyl-2-[2-(methylphenylamino) ethenyl]-1-phenyl-1H-benzimidazolium iodide (Akt inhibitor IV) for Akt, LY294002 for PI3-kinase, SP600125 for JNK, U0126 for MEK/ERK, SB203580 for p38MAPK, and rottlerin for PKCδ. SK-N-MC cells were preincubated in the presence of 250 nM Akt inhibitor IV, 30 μM LY294002, 1 μM rottlerin, 10 μM U0126, 20 μM SB203580, or 20 μM SP600125 for 30 min followed by exposure to 20 μg/ml Protandim® for 24 h. Cell lysates were electrophoresed and immunoblotted for HO-1. The blots were then reprobed with the antibody for β-actin. […] The intensities of the bands were quantified by densitometry using Fluor-S MultiImager and Quantity One software from Bio-Rad. HO-1 levels were corrected for β-actin expression.

Data set [3] concerns HO-1 promoter. The data set is described as follows: HO-1 promoter luciferase reporter assay in MIN6 cells. Type of data set: cell-based, mouse. Conditions: concentration present in the maximum dose of Protandim® (40 μg/ml). Background: A reporter such as luciferase makes a cellular process visible.
Protocol: (§1) The induction of HO-1 by Protandim® was tested by transient transfection of its promoter linked to the luciferase reporter gene in MIN6 cells, a mouse insulinoma cell line, and in SK-N-MC cells, a human neuroblastoma cell line, as reported in Velmurugan, K. et al., “Synergistic induction of heme oxygenase-1 by the components of the antioxidant supplement Protandim,” Free Radical Biology & Medicine, 46: 430-440 (2009), the entire disclosure of which is incorporated herein by reference.
(§2) The alcohol extract of Protandim® was prepared by shaking 675 mg of Protandim with 16.875 ml of 95% ethanol overnight at 4° C. and centrifuging at 5000 rpm (4° C.) for 5 min, and the extract (40 mg/ml) was stored at −80° C. For studies on synergy, the individual components present in 675 mg of Protandim® were extracted in the same volume of alcohol by a similar procedure. Parallel preparations of Protandim® extracts were also prepared with one of the components omitted. […] Controls were treated with the same volume of alcohol used in the treated groups. […]
(§3) After freezing and thawing, the lysates were centrifuged (10,600 g; 20 min) to collect the supernatant. Firefly luciferase and Renilla luciferase activities from transfected cells were measured using the Dual-Glo Luciferase Assay System (Promega). […]
Data set [4] relates to HO-1. The data set is described as follows: HO-1 protein by Western blot in MIN6 cells. Type of data set: cell-based, mouse. Conditions: ethanolic extracts at maximum doses of Table 10 (Protandim® 40 μg/ml).
Description: (§4) After treatment with Protandim® extracts, MIN6 and SK-N-MC cells were washed with ice-cold PBS. Cells were lysed with mammalian protein extraction reagent (Pierce, Rockford, Ill., USA) containing phosphatase inhibitors and protease inhibitor cocktail. […] Diluted samples containing equal amounts of protein were mixed with 2× Laemmli sample buffer and subjected to electrophoresis on 12% SDS-polyacrylamide gels. After transfer to polyvinylidene difluoride membranes, the membranes were blocked with TBST [20 mM Tris-HCl (pH 7.9), 8.5% NaCl, and 0.1% Tween 20] containing 5% nonfat dry milk at room temperature for 1 h and exposed to primary antibodies (1:1000) in TBST containing 5.0% BSA at 4° C. overnight. After being washed in blocking solution, the membranes were exposed to secondary antibodies conjugated to alkaline phosphatase and developed with CDP-Star reagent (New England Biolabs, Beverly, Mass., USA). The intensity of the protein bands was visualized using Fluor-S Multi-Imager and Quantity One software from Bio-Rad. […]
(§5) Cell lysates were processed for Western blot analysis of HO-1, and the blots reprobed for β-actin. The intensities of bands were quantitated by scanning in a MultiImager using Quantity One software (Bio-Rad), and HO-1 expression was corrected for β-actin levels.
In data set [5] the test system is HO-1. As to the kind of experiment: HO-1 protein by Western blot in SK-N-MC cells. Type of data set: cell-based, human. The settings on record: ethanolic extracts at maximum doses of Table 10 (Protandim® 20 μg/ml). On the technique in general: In western blotting, separated proteins are transferred to a membrane and probed.
Description: as §4, §5
Data set [6] deals with HO-1 promoter. As to the kind of experiment: HO-1 promoter luciferase reporter assay in SK-N-MC cells. Type of data set: cell-based, human. The settings on record: concentration present in the maximum dose of Protandim® (20 μg/ml).
Protocol: as §1, §2, §3
For data set [7] the following is noted: pH of 1.0; cited from earlier work.
The next data set deals with Nrf2. As to the kind of experiment: AREc32 bioassay for Nrf2 activation. The text has this:
The assay for Nrf2 activation is based on the AREc32 cell line, developed by Dr. C. R. Wolf and colleagues of the University of Dundee, Scotland, as described in Wang, X. J. et al., “Generation of a stable antioxidant response element-driven reporter gene cell line and its use to show redoxdependent activation of Nrf2 by cancer chemotherapeutic agents,” Cancer Res. 66, 10983-10994 (2006); Hybertson, B. M. et al., “Oxidative stress in health and disease: the therapeutic potential of Nrf2 activation,” Molecular Aspects of Medicine, 32: 234-246 (2011), the entire disclosure of each of which is incorporated herein by reference. The AREc32 cell line is a stable transfectant derived from the MCF7 human breast cancer cell line. It contains a promoter with eight copies of the rat glutathione-S-transferase-A2 Antioxidant Response Element (ARE) and the SV40 promoter sequence upstream of a firefly luciferase reporter gene.
Briefly, AREc32 cells were grown in Opti-MEM (GIBCO, Carlsbad, Calif.) supplemented with 4% fetal bovine serum (FBS, GIBCO) and 1% Antibiotic-Antimycotic (GIBCO) at 37° C. and in a 10% CO 2-supplemented air atmosphere. The cells were seeded at 1% to 5% of confluent cell density in T75 tissue culture flasks and cultivated until they approached confluence. The medium was aspirated off and the adherent cells trypsinized with 1 ml of 1× Trypsin-EDTA solution (GIBCO) for 10 min. Ten milliliters of medium was added to the flask and the cells transferred to a 50 ml centrifuge tube and centrifuged at 1000 rpm for 5 min at room temperature. Cells were washed once with 10 ml of medium, then resuspended in 10 ml of medium. Cells were counted using a hemocytometer and diluted to a concentration of 50,000 cells/ml. Four hundred microliters of this cell suspension was seeded into each well of a 24-well plate (i.e. 20,000 cells/well). Seeded plates were then returned to the incubator for 24 h.
After 18-24 h the cells were reattached and growing, and ready for treatment with samples with putative Nrf2 activating activity. […] Vehicles used were aqueous or organic solvents such as ethanol or DMSO, and appropriate vehicle controls were included. The cells were then returned to the incubator for 18 h. All operations up to this point must be conducted under sterile conditions.
After 24 h the cells were checked under the microscope for any abnormalities or detachment. The medium was aspirated and the cells were washed with phosphate buffered saline, pH 7.4 (100 μl/well). Following aspiration of the wash solution, the cells were lysed by application of 0.1 M potassium phosphate buffer, pH 7.8, containing 1% Triton X-100, 2 mM dithiothreitol, 2 mM EDTA, 10% glycerol and 3.5 mM sodium pyrophosphate (100 μl/well). The plate was incubated at 4° C. for 20 min. Lysate (20 μl from each well in a new 12×75 mm glass test tube) was assayed for luciferase activity using a Monolight 3010 autoinject luminometer (Analytical Luminescence Laboratory, Ann Arbor, Mich.), automatically injecting 50 of Luciferase Assay Buffer after background measurement. Luciferase Assay Buffer was prepared by mixing 9 ml of Solution A (15 mM Tricine, pH 7.8, containing 1.5 mM ATP, 7.5 mM MgSO 4, and 5 mM dithiothreitol) with 1 ml of Solution B 10 mM D-luciferin). After a 4 delay following injection, luminescence was measured for 10 s. Relative Light Units (RLU) were recorded for the contents of each well. Fold Induction (FI) of luciferase activity was calculated by dividing the RLU obtained for the test well by the average RLU obtained for control wells (which received no putative Nrf2 activator). Each assay or control was performed in duplicate. Parameters noted were the concentration of test substance providing maximal fold induction of luciferase (Cmax), and the maximal fold induction observed (FImax).
The AREc32 cells were prepared as in Example 7. After 18-24 h the cells were reattached and growing, and ready for treatment with samples with putative Nrf2 activating activity. […]

Where [8] appears, read: SK-N-MC, 250 nM Akt inhibitor IV, 30 μM LY294002, 10 μM U0126, 20 μM SP600125, 30 min, then 20 μg/ml Protandim® 24 h.
Setting [9] is: SK-N-MC, then 20 μg/ml Protandim® 24 h.
Where [10] appears, read: AREc32 cells, biphasic induction.

SMILES strings stand for the structures. Like-named read-outs stand apart in the source and are kept apart here.

In data set [1], `CC(C)NCC(O)COc1ccc(CC(N)=O)cc1` (stereo not shown) [ATENOLOL] yielded a lowest diastolic measurement of 91.

With `CC[n+]1c(/C=C/N(C)c2ccccc2)n(-c2ccccc2)c2ccc(-c3nc4ccccc4s3)cc21` [Akt inhibitor IV, 5-(2-benzothiazolyl)-3-ethyl-2-[2-(methylphenylamino)ethenyl]-1-phenyl-1H-benzimidazolium iodide], in the data set with HO-1 [2] (setting [8]), the “effect of inhibitor on Protandim®-induced increase in HO-1 protein levels” value is reported as “significant (p<0.001) decrease”.

As to `COc1cc(/C=C/C(=O)CC(=O)/C=C/c2ccc(O)c(OC)c2)ccc1O` [Curcumin], the results for the “HO-1 promoter induction by individual ingredient” value with HO-1 promoter [3] and in the data set on HO-1 promoter [6] were 36% and 300%, respectively. Moreover, the “increase of HO-1 protein level” value in the data set on HO-1 [4] and in the data set on HO-1 [5] was 6 fold throughout.

With `N[C@@H](CCC(=O)N[C@@H](CS)C(=O)NCC(=O)O)C(=O)O` [GSH, L-γ-glutamyl-L-cysteinyl-glycine], in data set [7], the “rate constant K2 against the hydroxyl radical” value was 8.8×10^9.

In the case of `CC(=O)N[C@@H](CS)C(=O)O` [NAC, N-Acetyl Cysteine], in data set [7], the rate constant K2 against the hydroxyl radical was 1.36e+10 M⁻¹ s⁻¹.

Regarding `C[S+]([O-])c1ccc(-c2nc(-c3ccncc3)c(-c3ccc(F)cc3)[nH]2)cc1` (stereo not shown) [SB203580], the “decrease of Protandim®-mediated increase in HO-1 expression in presence of inhibitor” value in the data set on HO-1 [2] (setting [9]) came out at 50%.

`Oc1c2ccccc2c2c3c(cccc13)N=N2` [SP600125]: in the data set on HO-1 [2] (setting [8]), the “effect of inhibitor on Protandim®-induced increase in HO-1 protein levels” value is listed as “No significant effect”.

`N#CC(=C(/N)Sc1ccccc1N)/C(C#N)=C(\N)Sc1ccccc1N` [U0126]: in the data set with HO-1 [2], the “effect of inhibitor on Protandim®-induced increase in HO-1 protein levels” value is recorded as “No significant effect”.

As for `CC1=C(CO)C(=O)O[C@@H]([C@@H](C)[C@H]2CC[C@H]3[C@@H]4C[C@H]5O[C@]56[C@@H](O)C=CC(=O)[C@]6(C)[C@H]4CC[C@]23C)C1` [Withaferin A], the “concentration providing maximal fold induction of luciferase (Cmax)” value in the data set with Nrf2 (AREc32 cells, 18 h) was 2.1 µM; in the data set with Nrf2 (AREc32 cells, 18 h, ethanolic extract) it was 1.0 µg/mL.

For `COC(=O)[C@]12CCC(C)(C)C[C@H]1[C@H]1C(=O)C=C3[C@@]4(C)C=C(C#N)C(=O)C(C)(C)[C@@H]4CC[C@@]3(C)[C@]1(C)CC2` [bardoxolone methyl], the “maximal fold induction observed (FImax)” value with Nrf2 worked out at 67 fold. Moreover, in the data set on Nrf2 (setting [10]), the “lower end of concentration range producing near maximal FI” value was “less than 40 nM” and the upper end of concentration range producing near maximal FI was 0.4 µM.

Regarding `CC(=O)c1c(O)c(C)c(O)c(Cc2c(O)c3c(c(C(=O)/C=C/c4ccccc4)c2O)OC(C)(C)C=C3)c1O` [rottlerin], the “decrease of Protandim®-mediated increase in HO-1 expression in presence of inhibitor” value in the data set on HO-1 [2] (setting [9]) is listed as 50%.

`C[S+]([O-])CCCCN=C=S` (stereo not shown) [sulforaphane]: the “maximal fold induction observed (FImax)” value in the data set on Nrf2 (human, 18 h) was 21 fold.

Turning to `CC(C)(C)c1cc(O)ccc1O` [tert-butyl-hydroquinone], the “increase of luciferase activity” value with Nrf2 (AREc32 cells, 50 μmol/L) is “up to 50 fold”.
